Test results published in patent publication US8445492B2, “Method for inhibiting growth of cancer cells and cell telomere and diseases of cell proliferation by using heteroannelated anthraquinone derivative compounds” (National Defense Medical Center, priority 2008, dated 2013).
Like-named read-outs stand apart in the source and are kept apart here.

Legend:
MOLT-4 [1] = tested on: MOLT-4
NCI-H460 [2] = assay: cells; conditions: Homo sapiens, NCI-H460
NCI-H460 [3] = tested on: NCI-H460
HOP-62 [4] = tested on: HOP-62
NCI-H23 = assay: cells; conditions: Homo sapiens, NCI-H23
A549/ATCC [5] = tested on: A549/ATCC
NCI-H226 = assay: cells; conditions: Homo sapiens, NCI-H226
EKVX [6] = tested on: EKVX
[7] = tested on: different cancer cell lines; assay: in vitro test at 1.0×10^−5 M, summary over the cell lines; assay type: cell-based; set-up: unit not given here; conditions: 1.0×10^−5 molal concentration (M)
DU-145 [8] = assay: cells; conditions: Homo sapiens, DU-145
NCI-H522 [9] = assay: cells; conditions: Homo sapiens, NCI-H522
HS 578T = assay: in vitro test at 1.0×10^−5 M, Breast cancer cell; assay type: cell-based; conditions: 1.0×10^−5 molal concentration (M)
DU-145 [10] = tested on: DU-145
PC-3 [11] = tested on: PC-3
RPMI-8226 [12] = tested on: RPMI-8226
NCI-H522 [13] = tested on: NCI-H522
HOP-92 [14] = assay: cells; conditions: Homo sapiens, HOP-92
MOLT-4 [15] = assay: cells; conditions: Homo sapiens, MOLT-4
K-562 [16] = assay: cells; conditions: Homo sapiens, K562
A549/ATCC [17] = assay: cells; conditions: Homo sapiens, A549
K-562 [18] = tested on: K-562
HL-60(TB) [19] = assay: cells; conditions: Homo sapiens, HL-60
HOP-62 [20] = assay: in vitro test at 1.0×10^−5 M, Non-small cell lung cancer cell; assay type: cell-based; conditions: 1.0×10^−5 molal concentration (M)
EKVX [21] = assay: cells; conditions: Homo sapiens
HL-60(TB) [22] = tested on: HL-60(TB)
RPMI-8226 [23] = assay: cells; conditions: Homo sapiens, RPMI-8226
HOP-62 [24] = assay: cells; conditions: Homo sapiens, HOP-62
LOX IMV1 = assay: in vitro test at 1.0×10^−5 M, Skin cancer cell; assay type: cell-based; conditions: 1.0×10^−5 molal concentration (M)
CCRF-CEM [25] = tested on: CCRF-CEM
CCRF-CEM [26] = assay: cells; conditions: Homo sapiens
PC-3 [27] = assay: cells; conditions: Homo sapiens, PC-3
HOP-92 [28] = tested on: HOP-92

CCc1nc2ccc3c(c2[nH]1)C(=O)c1ccccc1C3=O [No. 4, 2-Ethyl-1(3)H-anthra[1,2-d]imidazole-6,11-dione]
Percent Growth (MOLT-4 [1]; Log10 Concentration −4.0): −1%
Percent Growth (MOLT-4 [1]; Log10 Concentration −5.0): 49%
Percent Growth (MOLT-4 [1]; Log10 Concentration −6.0): 93%
Percent Growth (MOLT-4 [1]; Log10 Concentration −7.0): 96%
Percent Growth (MOLT-4 [1]; Log10 Concentration −8.0): 98%
TGI (MOLT-4 [1]; MOLT-4): 9.51E−5
GI50 (NCI-H460 [2]): 3.07 µM
Percent Growth (NCI-H460 [3]; Log10 Concentration −4.0): 2%
Percent Growth (NCI-H460 [3]; Log10 Concentration −5.0): 25%
Percent Growth (NCI-H460 [3]; Log10 Concentration −6.0): 74%
Percent Growth (NCI-H460 [3]; Log10 Concentration −7.0): 82%
Percent Growth (NCI-H460 [3]; Log10 Concentration −8.0): 84%
TGI (NCI-H460 [3]; NCI-H460): >1.00E−4
TGI (HOP-62 [4]; HOP-62): >1.00E−4
Percent Growth (HOP-62 [4]; Log10 Concentration −4.0): 38%
Percent Growth (HOP-62 [4]; Log10 Concentration −5.0): 72%
Percent Growth (HOP-62 [4]; Log10 Concentration −6.0): 87%
Percent Growth (HOP-62 [4]; Log10 Concentration −7.0): 94%
Percent Growth (HOP-62 [4]; Log10 Concentration −8.0): 90%
GI50 (NCI-H23): 9.17 µM
TGI (A549/ATCC [5]; A549/ATCC): >1.00E−4
Percent Growth (A549/ATCC [5]; Log10 Concentration −4.0): 17%
Percent Growth (A549/ATCC [5]; Log10 Concentration −5.0): 60%
Percent Growth (A549/ATCC [5]; Log10 Concentration −6.0): 97%
Percent Growth (A549/ATCC [5]; Log10 Concentration −7.0): 100%
Percent Growth (A549/ATCC [5]; Log10 Concentration −8.0): 91%
GI50 (NCI-H226): 20.8 µM
TGI (EKVX [6]; EKVX): 9.43E−5
Percent Growth (EKVX [6]; Log10 Concentration −5.0): 15%
Percent Growth (EKVX [6]; Log10 Concentration −6.0): 59%
Percent Growth (EKVX [6]; Log10 Concentration −7.0): 82%
Percent Growth (EKVX [6]; Log10 Concentration −8.0): 88%
Mean [7]: 58.42
GI50 (DU-145 [8]): 5.62 µM
GI50 (NCI-H522 [9]): 15.4 µM
inhibition effect on cancer cell line (Table 2 value) (HS 578T): −18.58
TGI (DU-145 [10]; DU-145): >1.00E−4
Percent Growth (DU-145 [10]; Log10 Concentration −4.0): 24%
Percent Growth (DU-145 [10]; Log10 Concentration −5.0): 37%
Percent Growth (DU-145 [10]; Log10 Concentration −6.0): 88%
Percent Growth (DU-145 [10]; Log10 Concentration −7.0): 98%
Percent Growth (DU-145 [10]; Log10 Concentration −8.0): 98%
Percent Growth (PC-3 [11]; Log10 Concentration −4.0): 29%
Percent Growth (PC-3 [11]; Log10 Concentration −5.0): 54%
Percent Growth (PC-3 [11]; Log10 Concentration −6.0): 93%
Percent Growth (PC-3 [11]; Log10 Concentration −7.0): 100%
Percent Growth (PC-3 [11]; Log10 Concentration −8.0): 96%
TGI (PC-3 [11]; PC-3): >1.00E−4
Percent Growth (RPMI-8226 [12]; Log10 Concentration −4.0): −12%
Percent Growth (RPMI-8226 [12]; Log10 Concentration −5.0): 12%
Percent Growth (RPMI-8226 [12]; Log10 Concentration −6.0): 73%
Percent Growth (RPMI-8226 [12]; Log10 Concentration −7.0): 81%
Percent Growth (RPMI-8226 [12]; Log10 Concentration −8.0): 97%
TGI (RPMI-8226 [12]; RPMI-8226): 3.21E−5
Percent Growth (NCI-H522 [13]; Log10 Concentration −4.0): 32%
Percent Growth (NCI-H522 [13]; Log10 Concentration −5.0): 54%
Percent Growth (NCI-H522 [13]; Log10 Concentration −6.0): 87%
Percent Growth (NCI-H522 [13]; Log10 Concentration −7.0): 88%
Percent Growth (NCI-H522 [13]; Log10 Concentration −8.0): 89%
TGI (NCI-H522 [13]; NCI-H522): >1.00E−4
GI50 (HOP-92 [14]): 7.38 µM
GI50 (MOLT-4 [15]): 9.31 µM
GI50 (K-562 [16]): 78.3 µM
GI50 (A549/ATCC [17]): 17.1 µM
TGI (K-562 [18]; K-562): >1.00E−4
Percent Growth (K-562 [18]; Log10 Concentration −4.0): 48%
Percent Growth (K-562 [18]; Log10 Concentration −5.0): 63%
Percent Growth (K-562 [18]; Log10 Concentration −6.0): 87%
Percent Growth (K-562 [18]; Log10 Concentration −7.0): 92%
Percent Growth (K-562 [18]; Log10 Concentration −8.0): 94%
GI50 (HL-60(TB) [19]): 7.53 µM
inhibition effect on cancer cell line (Table 2 value) (HOP-62 [20]): 97.73
GI50 (EKVX [21]): 1.6 µM
TGI (HL-60(TB) [22]; HL-60(TB)): >1.00E−4
Percent Growth (HL-60(TB) [22]; Log10 Concentration −4.0): 19%
Percent Growth (HL-60(TB) [22]; Log10 Concentration −5.0): 43%
Percent Growth (HL-60(TB) [22]; Log10 Concentration −6.0): 101%
Percent Growth (HL-60(TB) [22]; Log10 Concentration −7.0): 100%
Percent Growth (HL-60(TB) [22]; Log10 Concentration −8.0): 100%
GI50 (RPMI-8226 [23]): 2.42 µM
GI50 (HOP-62 [24]): 44.2 µM
inhibition effect on cancer cell line (Table 2 value) (LOX IMV1): 39.98
TGI (CCRF-CEM [25]; CCRF-CEM): >1.00E−4
Percent Growth (CCRF-CEM [25]; Log10 Concentration −4.0): 15%
Percent Growth (CCRF-CEM [25]; Log10 Concentration −5.0): 51%
Percent Growth (CCRF-CEM [25]; Log10 Concentration −6.0): 95%
Percent Growth (CCRF-CEM [25]; Log10 Concentration −7.0): 94%
Percent Growth (CCRF-CEM [25]; Log10 Concentration −8.0): 103%
GI50 (CCRF-CEM [26]): 10.9 µM
GI50 (PC-3 [27]): 14.4 µM
TGI (HOP-92 [28]; HOP-92): >1.00E−4
Percent Growth (HOP-92 [28]; Log10 Concentration −4.0): 23%
Percent Growth (HOP-92 [28]; Log10 Concentration −5.0): 48%
Percent Growth (HOP-92 [28]; Log10 Concentration −6.0): 64%
Percent Growth (HOP-92 [28]; Log10 Concentration −7.0): 80%
Percent Growth (HOP-92 [28]; Log10 Concentration −8.0): 93%
